Reference: patent EP0365089A2, “2-Aryl-5(3-methoxy-5-(hydroxypropylsulfonyl)-4-propoxyphenyl) tetrahydrothiophen and analogs” (MERCK & CO. INC., priority 1988, dated 1990)

Assays:
PAF = test: PAF-antagonist activity, test not specified; settings: ranking in words, no test named
[1] = target: T1, PAF binding to its specific receptor binding site on rabbit platelet plasma membranes (Oryctolagus cuniculus, UniProt G1TEI7); test: Inhibition of 3H-PAF binding to platelet plasma membrane (isotopic labeling and filtration); settings: for inhibition at 30000 µM: dose 30 mM; for inhibition at 30 µM: dose .03 mM
T1 construct: from tissue; host or cells: rabbit platelet plasma membranes
T1 sequence (G1TEI7 1-342): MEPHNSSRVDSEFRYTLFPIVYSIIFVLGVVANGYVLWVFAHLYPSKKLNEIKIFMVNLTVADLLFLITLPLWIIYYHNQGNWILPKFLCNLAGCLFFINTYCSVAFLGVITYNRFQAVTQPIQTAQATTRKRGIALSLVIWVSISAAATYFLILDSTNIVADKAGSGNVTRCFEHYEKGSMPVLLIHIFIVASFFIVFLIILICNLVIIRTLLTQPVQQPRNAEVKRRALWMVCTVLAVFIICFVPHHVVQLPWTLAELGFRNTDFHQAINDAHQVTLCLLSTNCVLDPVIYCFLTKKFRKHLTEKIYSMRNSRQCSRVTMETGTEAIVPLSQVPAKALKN
Description: In vitro, they inhibit PAF-induced functions in both the cellular and tissue levels by disturbing the PAF binding to its specific receptor site. The ability of a compound of formula (I) to inhibit the PAF binding to its specific receptor binding site on rabbit platelet plasma membranes was measured by an assay developed by us.
The inhibition of H^3-PAF binding to human or rabbit platelet plasma membrane by a PAF-antagonist of Formula (I) was determined by a method employing isotopic labeling and filtration techniques. Generally, a series of Tris-buffered solutions of the selected antagonist at predetermined concentrations were prepared. Each of these solutions contains 1 pmole of ^3H-PAF, a known amount of the test antagonist, and a sufficient amount of the pH 7.0 Tris-buffer solution (10mM Tris, 0.25% bovine serum albumin, and 10 mM MgC12 per ml water) to make the final volume of 1 ml. After adding into a set of test tubes each with 100 αg of the platelet plasma […] suspension and one of the Tris-buffer solutions described above, the resulting mixture in each test tube was incubated at 0 C for about one hour or until the reaction was complete. Two control samples, one of which (Ci) contains all the ingredients described above except the antagonist and the other (C2) contains C1 plus a 1000-fold excess of unlabeled PAF, were also prepared and incubated simultaneously with the test samples. After the incubation was completed, the contents of each test tube were filtered under vacuo through a Whatman GF/C fiberglass filter and the residue washed rapidly several times with a total of 20 ml cold (0°-5°C) Tris-buffer solution. Each washed residue was then suspended in 10 ml scintillation solution (Aquasol 2, New England Nuclear, Connecticut) and the radioactivity was counted in a Packard Tri-Carb 460CD Liquid Scintillation System. Defining the counts from a test sample as "Total binding with antagonist"; the counts from the control sample C1, as "Total binding C1"; and the counts from the control sample C2 as "non-specific binding C2", the percent inhibition of each test antagonist can be determined by the following equation: [formula] Specific binding =(Total binding C1)-(non-specific binding C2)

[2] = test system: PAF-induced symptoms including decreased arterial blood flow, increased vascular permeability and increased degranulation in rats; test: Oral activity of PAF-antagonists in inhibiting PAF-induced symptoms in rats; assay type: in vivo; settings: oral dose 1 mg/kg, male rats weighing about 190-220g
Description: • 1.) Fast rats overnight. • 2.) Weigh the rats the morning after fasting, • 3.) Suspend a test compound in 0.5% methylcellulose with 12 ounce hand homogenizer or a sonicator if necessary to yield a fine suspension. […] After the beginning of the PAF infusion as well as just before the PAF infusion, measure the following three parameters for each blood sample: • a) the arterial blood flow rate: determined by measuring the time to fill a pre-calibrated 14 µl capillary tube; • b) the vascular permeability: measured by calculating the increased hematocrit which results from loss of plasma from the circulation to extra-vascular spaces. • c) the circulatory degranulation: determined by assaying the increased plasma level of N-acetylglucosaminidase, a marker lysosomal enzyme. • 7.) Determine the percent change in each parameter of a blood sample at each post-PAF interval including the 30 minute interval, relative to the pre-PAF blood values. • 8.) Calculate the percent inhibition by the formula: % inhibition = [formula]

SMILES	PAF-antagonist activity (PAF)	inhibition at 30000 µM [1]	inhibition at 30 µM [1]	other results
CCOc1c(OC)cc([C@H]2CC[C@H](c3cc(OC)c(OC)c(OC)c3)S2)cc1C(=O)Nc1cccc(Cl)c1 (relative stereo) [(3-chlorophenyl-aminocarbonyl)phenyl, trans-2-(3,4,5-trimethoxyphenyl)-5-(3-methoxy-4-ethoxy-5-(3-chlorophenylaminocarbonyl)-phenyl)tetrahydrothiophene]	most active	6%		
COc1cc(C2CCC(c3cc(OC)c(OC)c(OC)c3)S2)cc(OC)c1OC (centres unmarked) [same as Ar]			69%	
COc1cc(C2CCC(c3cc(OC)c(OC)c(OC)c3)S2)cnc1OC (centres unmarked) [5,6-di-methoxy-3-pyridyl]				inhibition at 1000 µM ([1]; dose 1 mM): 80%; inhibition at 5000 µM ([1]; dose 5 mM): 96%
CCCOc1c(OC)cc([C@H]2CC[C@H](c3cc(OC)c(OC)c(OC)c3)S2)cc1S(=O)(=O)CC(C)O (relative stereo) [Trans-2-(3,4,5-trimethoxyphenyl)-5-(3-methoxy-5-(2-hydroxypropylsulfonyl)-4-propoxyphenyl)-tetrahydrothiophene]	most active		89%	inhibition at 3 µM ([1]; dose .003 mM): 57%; %inhibition A = increased vascular permeability [2]: 60%; %inhibition B = increased degranulation [2]: 62%
CCCOc1c(C#N)cc([C@H]2CC[C@H](c3cc(OC)c(OC)c(OC)c3)S2)cc1OC (relative stereo) [3-cyano-4-propoxy-5-methoxyphenyl, trans-2-(3,4,5-trimethoxyphenyl)-5-(5-cyano-3-methoxy-4-propoxyphenyl)-tetrahydrothiophene]		27%		
